IC50 data for 20 compounds are collected here from US10703757B2, “Compounds and methods for CDK8 modulation and indications therefor” (Plexxikon Inc., priority 2016, dated 2020).

Assay [1] concerns CDK8 (TCF/LEF luciferase reporter in HCT116 cells). As to the kind of experiment: Cell based TCF/LEF reporter assay (HCT116+TCF/LEF luciferase). The settings on record: Homo sapiens, HCT-116, 24 h. From the text:
Determine Inhibitor Activity Against CDK8 in Cell Based TCF/LEF Reporter Assay
The colorectal carcinoma cell line HCT116 was stably transduced with lentivirus encoding the TCF/LEF promoter upstream of a luciferase reporter gene (Qiagen) and single cell clones expressing this construct (referred to as HCT116+TCF/LEF) were isolated. HCT116 express endogenous mutant β-catenin^3, resulting in up-regulation of transcription through the TCF/LEF promoter. Expression of the TCF/LEF reporter construct in HCT116 results in constitutive expression of luciferase. Treatment of the cells with inhibitors of components of the β-catenin signaling pathway (such as CDK8) results in decreased expression of luciferase. The assay is performed as follows. The HCT116+TCF/LEF cell line is seeded in a 96 well plate in 50 μL of culture media at 1×10^4 cells/well and incubated at 37° C. overnight. Serial dilutions of compounds (in total volume of 50 μL culture media) are added to the cells and incubated at 37° C. for 24 hours. 4 wells of DMSO treated cells serve as high controls and cells treated with 10 uM of the reference compound CCT251545 (a known CDK8 inhibitor)^4 serve as low controls. The viability of the cells is assayed by the addition of […] reagent (Promega) followed by 30 minute incubation at 37° C. and quantification of the fluorescent signal (Ex400/Em505). The luciferase expression is then assayed by the addition of 25 μL ONE-Glo reagent (Promega) followed by 10 minute incubation at room temperature and quantification of the luminescence signal. The luminescence signal is normalized to the fluorescence signal to correct for any loss in cell viability over the 24 hour compound incubation period. The percentage inhibition at individual concentrations relative to high and low controls is calculated. The data are analyzed by using nonlinear regression to generate IC50 values.

For assay [2], the system named is CDK8 (phosphorylation of STAT1 at serine 727 in A549 cells). Kind of assay: Cell based Phospho-STAT1 assay (IFNγ-stimulated A549 cells, AlphaLISA). The note with it: Homo sapiens, A549, A549 cells, phospho-STAT1 after IFNγ stimulation. The procedure, abridged: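 A549 cells given serial compound dilutions for 1 h at 37 °C, then stimulated with IFNγ at 10 ng/mL final for 30 min. Lysate STAT1 Ser727 phosphorylation measured by AlphaLISA; % inhibition vs stimulated/unstimulated DMSO controls, IC50 by nonlinear regression.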

As for `Cn1cc(-c2ccc(-c3cnn4ccnc(C#CC(C)(C)C(N)=O)c34)cc2)cn1` [Compound P-0003, 2,2-dimethyl-4-(3-(4-(1-methyl-1H-pyrazol-4-yl)phenyl)pyrazolo[1,5-a]pyrazin-4-yl)but-3-ynamide], the IC50 in assay [1] and in assay [2] was 0.1 to 100 nM each time.

On to `CC(C)(C#Cc1nccn2ncc(-c3ccc(-c4cnn(CCC#N)c4)cc3)c12)C(N)=O` [Compound P-0004, 4-(3-(4-(1-(2-cyanoethyl)-1H-pyrazol-4-yl)phenyl)pyrazolo[1,5-a]pyrazin-4-yl)-2,2-dimethylbut-3-ynamide], for which the half-maximal inhibitory concentration (IC50) in assay [1] and in assay [2] was 0.1 to 100 nM in each case.

For `CC(C)(C#Cc1cccn2ncc(-c3ccc(-c4cnn(CCC#N)c4)cc3)c12)C(N)=O` [Compound P-0005, 4-(3-(4-(1-(2-cyanoethyl)-1H-pyrazol-4-yl)phenyl)pyrazolo[1,5-a]pyridin-4-yl)-2,2-dimethylbut-3-ynamide], the IC50 in assay [1] and in assay [2] was 0.1 to 100 nM throughout.

Take `CC(C)(O)Cn1cc(-c2ccc(-c3cnn4cccc(C#CC(C)(C)C(N)=O)c34)cc2)cn1` [Compound P-0006, 4-(3-(4-(1-(2-hydroxy-2-methylpropyl)-1H-pyrazol-4-yl)phenyl)pyrazolo[1,5-a]pyridin-4-yl)-2,2-dimethylbut-3-ynamide]: the IC50 in assay [1] and in assay [2] was 0.1 to 100 nM in each case.

Turning to `N#CC1CCC(c2nccn3ncc(-c4ccc(-c5cnn(CCF)c5)cc4)c23)CC1` (stereo not shown) [Compound P-0007, (1s,4s)-4-(3-(4-(1-(2-fluoroethyl)-1H-pyrazol-4-yl)phenyl)pyrazolo[1,5-a]pyrazin-4-yl)cyclohexane-1-carbonitrile], the half-maximal inhibitory concentration (IC50) in assay [1] and in assay [2] was 0.1 to 100 nM throughout.

Consider `N#CC1CC=C(c2nccn3ncc(-c4ccc(-c5cn[nH]c5)cc4)c23)CC1` (stereo not shown) [Compound P-0008, 4-(3-(4-(1H-pyrazol-4-yl)phenyl)pyrazolo[1,5-a]pyrazin-4-yl)cyclohex-3-ene-1-carbonitrile], for which the half-maximal inhibitory concentration (IC50) in assay [1] and in assay [2] was 0.1 to 100 nM throughout.

For `N#CCCCn1cc(-c2ccc(-c3cnn4ccnc(C5=CCC(C#N)CC5)c34)cc2)cn1` (stereo not shown) [Compound P-0009, 4-(3-(4-(1-(3-cyanopropyl)-1H-pyrazol-4-yl)phenyl)pyrazolo[1,5-a]pyrazin-4-yl)cyclohex-3-ene-1-carbonitrile], the IC50 in assay [1] and in assay [2] was 0.1 to 100 nM throughout.

`N#CC1CC=C(c2nccn3ncc(-c4ccc(-c5cnn(C(F)F)c5)cc4)c23)CC1` (stereo not shown) [Compound P-0012, 4-(3-(4-(1-(difluoromethyl)-1H-pyrazol-4-yl)phenyl)pyrazolo[1,5-a]pyrazin-4-yl)cyclohex-3-ene-1-carbonitrile]: the half-maximal inhibitory concentration (IC50) in assay [1] and in assay [2] was 0.1 to 100 nM throughout.

On to `N#CC1CCC(c2nccn3ncc(-c4ccc(-c5cnn(CC(N)=O)c5)cc4)c23)CC1` (stereo not shown) [Compound P-0013, 2-(4-(4-(4-((1s,4s)-4-cyanoclohexyl)pyrazolo[1,5-a]pyrazin-3-yl)phenyl)-1H-pyrazol-1-yl)acetamide], for which the IC50 in assay [1] and in assay [2] was 0.1 to 100 nM throughout.

For the compound `N#CCn1cc(-c2ccc(-c3cnn4ccnc(C5CCC(C#N)CC5)c34)cc2)cn1` (stereo not shown) [Compound P-0014, (1s,4s)-4-(3-(4-(1-(cyanomethyl)-1H-pyrazol-4-yl)phenyl)pyrazolo[1,5-a]pyrazin-4-yl)cyclohexane-1-carbonitrile], the IC50 in assay [1] and in assay [2] was 0.1 to 100 nM in each case.

For the compound `CS(=O)(=O)CCn1cc(-c2ccc(-c3cnn4ccnc(C5CCC(C#N)CC5)c34)cc2)cn1` (stereo not shown) [Compound P-0015, (1s,4s)-(3-(4-(1-(2-(methylsulfonyl)ethyl)-1H-pyrazol-4-yl)phenyl)pyrazolo[1,5-a]pyrazin-4-yl)cyclohexane-1-carbonitrile], the concentration for half-maximal inhibition (IC50) in assay [1] and in assay [2] was 0.1 to 100 nM in each case.

`N#CC1CCC(c2nccn3ncc(-c4ccc(-c5cnn(CCN6CCOCC6)c5)cc4)c23)CC1` (stereo not shown) [Compound P-0016, (1s,4s)-4-(3-(4-(1-(2-morpholinoethyl)-1H-pyrazol-4-yl)phenyl)pyrazolo[1,5-a]pyrazin-4-yl)cyclohexane-1-carbonitrile]: the IC50 in assay [1] and in assay [2] was 0.1 to 100 nM throughout.

Take `N#CC1CCC(c2nccn3ncc(-c4ccc(-c5cnn(CCN6CCCC6)c5)cc4)c23)CC1` (stereo not shown) [Compound P-0017, (1s,4s)-4-(3-(4-(1-(2-(pyrrolidin-1-yl)ethyl)-1H-pyrazol-4-yl)phenyl)pyrazolo[1,5-a]pyrazin-4-yl)cyclohexane-1-carbonitrile]: the 50% inhibitory concentration (IC50) in assay [1] and in assay [2] was 0.1 to 100 nM in each case.

In the case of `N#CC1CCC(c2nccn3ncc(-c4ccc(-c5cnn(CC6(C#N)CC6)c5)c(F)c4)c23)CC1` (stereo not shown) [Compound P-0018, (1s,4s)-4-(3-(4-(1-((1-cyanocyclopropyl)methyl)-1H-pyrazol-4-yl)-3-fluorophenyl)pyrazolo[1,5-a]pyrazin-4-yl)cyclohexane-1-carbonitrile], the IC50 in assay [1] and in assay [2] was 0.1 to 100 nM throughout.

Take `N#CCCn1cc(-c2ccc(-c3cnn4ccnc(C5CCC(C#N)CC5)c34)cc2F)cn1` (stereo not shown) [Compound P-0019, (1s,4s)-4-(3-(4-(1-(2-cyanoethyl)-1H-pyrazol-4-yl)-3-fluorophenyl)pyrazolo[1,5-a]pyrazin-4-yl)cyclohexane-1-carbonitrile]: the half-maximal inhibitory concentration (IC50) in assay [1] and in assay [2] was 0.1 to 100 nM throughout.

Regarding `N#CC1CCC(c2nccn3ncc(-c4ccc(-c5cnn(CC6CC6)c5)cc4)c23)CC1` (stereo not shown) [Compound P-0020, (1s,4s)-4-(3-(4-(1-(cyclopropylmethyl)-1H-pyrazol-4-yl)phenyl)pyrazolo[1,5-a]pyrazin-4-yl)cyclohexane-1-carbonitrile], the IC50 in assay [1] and in assay [2] was 0.1 to 100 nM throughout.

On to `N#CC1CCC(c2nccn3ncc(-c4ccc(-c5cnn(CC(F)F)c5)cc4)c23)CC1` (stereo not shown) [Compound P-0021, (1s,4s)-4-(3-(4-(1-(2,2-difluoroethyl)-1H-pyrazol-4-yl)phenyl)pyrazolo[1,5-a]pyrazin-4-yl)cyclohexane-1-carbonitrile], for which the 50% inhibitory concentration (IC50) in assay [1] and in assay [2] was 0.1 to 100 nM throughout.

For the compound `N#CC1CCC(c2nccn3ncc(-c4ccc(-c5cnn(CC6CCC6)c5)cc4)c23)CC1` (stereo not shown) [Compound P-0022, (1s,4s)-4-(3-(4-(1-(cyclobutylmethyl)-1H-pyrazol-4-yl)phenyl)pyrazolo[1,5-a]pyrazin-4-yl)cyclohexane-1-carbonitrile], the IC50 in assay [1] and in assay [2] was 0.1 to 100 nM throughout.

With `CS(=O)(=O)Cn1cc(-c2ccc(-c3cnn4ccnc(C5CCC(C#N)CC5)c34)cc2)cn1` (stereo not shown) [Compound P-0023, (1s,4s)-4-(3-(4-(1-((methylsulfonyl)methyl)-1H-pyrazol-4-yl)phenyl)pyrazolo[1,5-a]pyrazin-4-yl)cyclohexane-1-carbonitrile], the half-maximal inhibitory concentration (IC50) in assay [1] and in assay [2] was 0.1 to 100 nM throughout.

On to `Cc1cc(-c2cnn3ccnc(C4=CCC(C#N)CC4)c23)ccc1-c1cnn(CC(C)(C)O)c1` (stereo not shown) [Compound P-0024, 4-(3-(4-(1-(2-hydroxy-2-methylpropyl)-1H-pyrazol-4-yl)-3 methylphenyl)pyrazolo[1,5-a]pyrazin-4-yl)cyclohex-3-ene-1-carbonitrile], for which the IC50 in assay [1] and in assay [2] was 0.1 to 100 nM throughout.
